The values below come from patent publication US9187458B2, “Cyanoquinoline derivatives” (Tianjin Hemay Bio-Tech Co., LTD., priority 2010, dated 2015).

Molecules are shown by their SMILES.

This experiment has as its system MDA-MB-453 cells. Briefly: MDA-MB-453 Cell Growth Inhibition Test (SRB Assay). It counts as cell-based. The conditions noted are these: Homo sapiens, 72 h incubation. Here is the method:
MDA-MB-453 Cell Growth Inhibition Test (SRB Assay)
Cell strains: MDA-MB-453 (human breast cancer cell strains);
SRB: 0.4% (w/v) working solution was formulated with 1% glacial acetic acid, reserved at 4° C.; antitumor compounds; DMSO
Culture medium: 90% L15+10% FBS;
1. A plate (10 cm) of cells in logarithmic growth phase normally cultured was collected;
2. The culture solution was sucked out. The plate was washed with 5 mL of PBS 1-2 times;
3. 1.5 mL of 0.25% pancreatin was added to the plate to infiltrate the cells;
4. The pancreatin was sucked out. The culture plate was placed in an incubator. Digestion was carried out for about 3 min at 37° C.;
5. 4 mL of complete culture solution was added to the culture plate to stop the digestion. The cells were carefully scoured with micropipette (1 ml) to give a uniform single cell suspension. The suspension was implanted into a 96-well cell culture plate by 7000 cells/100 μl per well. The culture plate was incubated overnight under 5% CO2 at 37° C. In day 2, 100 μl of culture solution comprising a compound was added in each well, and further incubated for 72 h under 5% CO2 at 37° C.;
6. The culture solution was sucked out. 100 uL of TCA fixed cells which were diluted to 10% were added to each well. The plate was kept in a refrigerator for 1 h at 4° C.
7. TCA stationary liquid was sucked out. […]
13. OD values were determined at […]. […]

Turning to `C#Cc1cccc(Nc2c(C#N)cnc3cc(OC4CCOC4)c(NC(=O)/C=C/CN(C)C)cc23)c1` (stereo not shown) [Example 5, (E)-N-(3-CYANO-4-(3-ETHYNYLPHENYLAMINO)-7-(TETRAHYDROFURAN-3-YL-OXY)QUINOLIN-6-YL)-4-(DIMETHYLAMINO)-BUT-2-ENAMIDE], the concentration for half-maximal inhibition (IC50) worked out at 505 nM.

As a reminder, the IC50 is the concentration that inhibits the measured activity by half. The low end stands for greater potency in that assay, the high end for weaker potency in that assay.
